Reference: ChEMBL document CHEMBL3885861, “Open TG-GATES”

Species: Rattus norvegicus
Assay: Open TG-GATES - Regimen: Daily Repeat
Format: toxicity, organism-based, Sprague-Dawley
Set-up: regimen Daily Repeat, gender Male, age 6 weeks
Conditions: in vivo, po, route gavage; for TP / gamma-GTP / ALP / ALT / AST / CRE / Ca / Cl / DBIL / GLC / IP / K / LDH / RALB / TBIL / TC / TG: tissue Plasma; for APTT / Bas / Eos / Fbg / Ht / Lym / MCH / MCHC / MCV / Mono / PT / Plat / RBC / Ret / WBC / Neu: tissue Blood; for KIDNEY_L / KIDNEY_R / KIDNEY_TOTAL: tissue Kidney
[1] = 10 mg/kg, […], dose level Low, time 28 day
[2] = 30 mg/kg, 72 h, dose level Middle, time 3 day
[3] = 30 mg/kg, […], dose level Middle, time 7 day
[4] = 30 mg/kg, […], dose level Middle, time 14 day
[5] = 30 mg/kg, […], dose level Middle, time 28 day
[6] = 100 mg/kg, 72 h, dose level High, time 3 day
[7] = 100 mg/kg, […], dose level High, time 7 day
[8] = 100 mg/kg, […], dose level High, time 14 day
[9] = 100 mg/kg, […], dose level High, time 28 day

## Cn1c(=O)c2c(ncn2C)n(C)c1=O [CAFFEINE]
[1]
  TP: 6 g/dL
  gamma-GTP: 2.4 IU/L
[2]
  TERMINAL_BW: 223.8 g
  APTT: 20.9 s
  Bas: 0%
  Eos: 0.8%
  Fbg: 330 mg/dL
  Ht: 41.1%
  Lym: 84%
  MCH: 21.2 pg
  MCHC: 33.4%
  MCV: 63.6 fL
  Mono: 1.2%
  PT: 15.5 s
  Plat: 114.5 x10_4/uL
  RBC: 646.4 x10_4/ul
  Ret: 5.2%
  WBC: 61.4 x10_2/uL
  KIDNEY_L: 1 g
  KIDNEY_R: 1 g
  KIDNEY_TOTAL: 2 g
  ALP: 1647.8 IU/L
  ALT: 40 IU/L
  AST: 67.4 IU/L
  CRE: 0.2 mg/dL
  Ca: 10.7 mg/dL
  Cl: 108.8 meq/L
  DBIL: 0 mg/dL
  GLC: 179.6 mg/dL
  IP: 8.1 mg/dL
  K: 4.4 meq/L
  LDH: 140.2 IU/L
  RALB: 3.1 g/dL
  TBIL: 0.004 mg/dL
  TC: 73.8 mg/dL
  TG: 87.6 mg/dL
  TP: 5.6 g/dL
  gamma-GTP: 1.2 IU/L
[3]
  TERMINAL_BW: 245.2 g
  APTT: 23.2 s
  Bas: 0%
  Eos: 0.8%
  Fbg: 310.2 mg/dL
  Lym: 80.8%
  MCHC: 33.6%
  MCV: 60.9 fL
  Mono: 1.4%
  Neu: 16%
  PT: 15.2 s
  Plat: 115.9 x10_4/uL
  RBC: 687.8 x10_4/ul
  Ret: 5.4%
  WBC: 79 x10_2/uL
  KIDNEY_L: 1 g
  KIDNEY_R: 1 g
  KIDNEY_TOTAL: 2.1 g
  ALP: 1455 IU/L
  ALT: 45.6 IU/L
  AST: 75.6 IU/L
  CRE: 0.1 mg/dL
  Ca: 10.4 mg/dL
  Cl: 106.4 meq/L
  DBIL: 0 mg/dL
  GLC: 182.4 mg/dL
  IP: 7.7 mg/dL
  K: 4.1 meq/L
  LDH: 158.8 IU/L
  RALB: 3.1 g/dL
  TBIL: 0.01 mg/dL
  TC: 74.6 mg/dL
  TG: 79.8 mg/dL
  TP: 5.7 g/dL
  gamma-GTP: 1.6 IU/L
[4]
  TERMINAL_BW: 286.3 g
  APTT: 23.9 s
  Bas: 0%
  Eos: 1%
  Fbg: 309 mg/dL
  Ht: 43.4%
  Lym: 76.2%
  MCH: 19.7 pg
  MCHC: 33.7%
  MCV: 58.4 fL
  Mono: 2%
  Neu: 20%
  PT: 15.2 s
  Plat: 109.9 x10_4/uL
  RBC: 743.8 x10_4/ul
  Ret: 3.9%
  WBC: 108 x10_2/uL
  KIDNEY_L: 1.1 g
  KIDNEY_R: 1.2 g
  KIDNEY_TOTAL: 2.3 g
  ALP: 1460.4 IU/L
  ALT: 47.6 IU/L
  AST: 75.6 IU/L
  CRE: 0.2 mg/dL
  Ca: 10.4 mg/dL
  Cl: 106.6 meq/L
  DBIL: 0 mg/dL
  GLC: 196 mg/dL
  IP: 7 mg/dL
  K: 4.2 meq/L
  LDH: 145.8 IU/L
  RALB: 3 g/dL
  TBIL: 0.002 mg/dL
  TC: 73.2 mg/dL
  TG: 139.6 mg/dL
  TP: 5.9 g/dL
  gamma-GTP: 2.4 IU/L
[5]
  TERMINAL_BW: 380.2 g
  Bas: 0%
  Eos: 1%
  Fbg: 315.2 mg/dL
  Ht: 43.1%
  Lym: 79.6%
  MCH: 19.4 pg
  MCHC: 35%
  MCV: 55.4 fL
  Mono: 2.4%
  PT: 15.5 s
  Plat: 100.3 x10_4/uL
  RBC: 778.6 x10_4/ul
  Ret: 2.7%
  WBC: 99.4 x10_2/uL
  KIDNEY_L: 1.5 g
  KIDNEY_R: 1.5 g
  KIDNEY_TOTAL: 3 g
  ALP: 1003 IU/L
  ALT: 44.8 IU/L
  AST: 71.8 IU/L
  CRE: 0.2 mg/dL
  Ca: 10.7 mg/dL
  Cl: 105.2 meq/L
  DBIL: 0 mg/dL
  GLC: 189.6 mg/dL
  IP: 7.6 mg/dL
  K: 3.9 meq/L
  LDH: 126.6 IU/L
  RALB: 3.2 g/dL
  TBIL: 0.01 mg/dL
  TC: 85.8 mg/dL
  TG: 88.6 mg/dL
  TP: 6.1 g/dL
  gamma-GTP: 2 IU/L
[6]
  TERMINAL_BW: 205.8 g
  APTT: 22.4 s
  Bas: 0%
  Eos: 1%
  Fbg: 319.6 mg/dL
  Lym: 74.4%
  MCHC: 33.8%
  MCV: 60.6 fL
  Mono: 1.6%
  Neu: 22.4%
  PT: 15.8 s
  Plat: 126.2 x10_4/uL
  RBC: 686 x10_4/ul
  Ret: 4.3%
  WBC: 81.5 x10_2/uL
  KIDNEY_L: 0.9 g
  KIDNEY_R: 0.9 g
  KIDNEY_TOTAL: 1.8 g
  ALT: 38 IU/L
  AST: 70.2 IU/L
  CRE: 0.2 mg/dL
  Ca: 10.8 mg/dL
  Cl: 108.6 meq/L
  DBIL: 0 mg/dL
  GLC: 169.6 mg/dL
  IP: 8.9 mg/dL
  K: 4.4 meq/L
  LDH: 159.6 IU/L
  RALB: 3.2 g/dL
  TBIL: 0.018 mg/dL
  TG: 43 mg/dL
  TP: 5.8 g/dL
  gamma-GTP: 1 IU/L
[7]
  TERMINAL_BW: 226.6 g
  APTT: 22.8 s
  Bas: 0%
  Eos: 1%
  Fbg: 321.8 mg/dL
  Lym: 80.8%
  MCHC: 34%
  MCV: 60.4 fL
  Mono: 2%
  Neu: 15.2%
  PT: 15.3 s
  Plat: 109.2 x10_4/uL
  RBC: 705.4 x10_4/ul
  Ret: 4.8%
  WBC: 100.2 x10_2/uL
  KIDNEY_L: 1 g
  KIDNEY_R: 1 g
  KIDNEY_TOTAL: 2 g
  ALP: 1284.2 IU/L
  ALT: 41.2 IU/L
  AST: 74.6 IU/L
  CRE: 0.1 mg/dL
  Ca: 10.4 mg/dL
  Cl: 106.2 meq/L
  DBIL: 0 mg/dL
  GLC: 182.8 mg/dL
  IP: 8.5 mg/dL
  K: 4.2 meq/L
  LDH: 175.6 IU/L
  RALB: 3 g/dL
  TBIL: 0.016 mg/dL
  TC: 84 mg/dL
  TG: 77.4 mg/dL
  TP: 5.7 g/dL
  gamma-GTP: 1.6 IU/L
[8]
  TERMINAL_BW: 270 g
  APTT: 24.3 s
  Bas: 0%
  Eos: 0.4%
  Fbg: 320.6 mg/dL
  Ht: 44.2%
  Lym: 80%
  MCH: 20.1 pg
  MCV: 58.9 fL
  Mono: 2%
  Neu: 16.6%
  PT: 15.5 s
  Plat: 110.4 x10_4/uL
  RBC: 750.4 x10_4/ul
  Ret: 3.5%
  WBC: 105.7 x10_2/uL
  KIDNEY_L: 1.2 g
  KIDNEY_R: 1.2 g
  KIDNEY_TOTAL: 2.4 g
  ALP: 1222.6 IU/L
  ALT: 46.8 IU/L
  AST: 80.6 IU/L
  CRE: 0.2 mg/dL
  Ca: 10.6 mg/dL
  Cl: 105.8 meq/L
  DBIL: 0 mg/dL
  GLC: 184.8 mg/dL
  IP: 8 mg/dL
  K: 4.2 meq/L
  LDH: 140.2 IU/L
  RALB: 3.1 g/dL
  TBIL: 0.022 mg/dL
  TC: 80.4 mg/dL
  TG: 83.4 mg/dL
  TP: 5.8 g/dL
  gamma-GTP: 2 IU/L
[9]
  TERMINAL_BW: 302.8 g
  APTT: 23.7 s
  Bas: 0%
  Eos: 1%
  Fbg: 308.2 mg/dL
  Lym: 75.6%
  MCH: 19.1 pg
  MCHC: 34.9%
  MCV: 54.8 fL
  Mono: 2.8%
  Neu: 18.8%
  PT: 15.9 s
  Plat: 97.1 x10_4/uL
  RBC: 829 x10_4/ul
  Ret: 2.1%
  WBC: 98.3 x10_2/uL
  KIDNEY_L: 1.2 g
  KIDNEY_R: 1.2 g
  KIDNEY_TOTAL: 2.5 g
  ALP: 1068.4 IU/L
  ALT: 53.8 IU/L
  AST: 85.4 IU/L
  CRE: 0.2 mg/dL
  Ca: 10.4 mg/dL
  Cl: 106.2 meq/L
  DBIL: 0 mg/dL
  GLC: 180.8 mg/dL
  IP: 7.8 mg/dL
  K: 4.2 meq/L
  LDH: 163 IU/L
  RALB: 3.2 g/dL
  TBIL: 0.034 mg/dL
  TC: 80.2 mg/dL
  TG: 77 mg/dL
  TP: 6 g/dL
  gamma-GTP: 2.6 IU/L
